GI50 and TGI data for twelve molecules are collected here from PubChem BioAssay (NCI).

Usually GI50 stands for the concentration that inhibits growth by half. The term TGI denotes the concentration giving total growth inhibition. Read a low TGI as greater sensitivity of the cells.

“And” between values parts separate entries of the source, which are not always exact repeats. Identical values can stand only once.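 Five concentrations, 48 hours, 96-well plates. GI50 = concentration required for 50% inhibition of growth. Definition used: TGI = concentration required for complete inhibition of growth.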

The test system of the first assay is HOP-62 NSCLC. Nature of the assay: DTP human tumour cell line panel, 48 h.
For `OCC1OC(n2cnc3c(N/N=C\c4ccccn4)ncnc32)C(O)C1O` (centres undefined), the GI50 was 0.289 µM and the TGI was determined as 2.14 µM.

For the molecule `COc1cc2c(cc1OCCCn1c(-c3ccccn3)nc3ccccc31)N=C[C@@H]1CCCN1C2=O`, the GI50 was 2.92 µM and the TGI is 9.57 µM.

For `c1cnn2ncc(-c3ccnc(NCCCN4CCOCC4)n3)c2c1`, the GI50 is 5.76 µM and the TGI is over 16.6 µM.

As for `O=C(Nc1ccc(OCc2nnc(-c3ccc(Cl)cc3)o2)c(F)c1)Nc1ccc(Cl)c(C(F)(F)F)c1`, the GI50 is 0.793 µM and the TGI was 5.84 µM.

Take `O=C1NC(=O)C(N2C(=O)c3ccccc3C2=O)CC1O` (centres undefined): the GI50 is over 100 µM and the TGI is over 100 µM.

The molecule `COc1ccc2c(c1)N(CCO)C1=C(C(=O)OC1)C2c1cccc(F)c1` (centres undefined) returned a TGI of over 50 µM.

Consider `C=CC(=O)Nc1cccc(Oc2nc(Nc3ccc(N4CCN(C)CC4)cc3)nc3ccsc23)c1`, for which the GI50 is 3.71 µM and 3.73 µM; the TGI was > 10 µM and 15.7 µM.

In the case of `OCc1ccc(N2CCCC2c2ccccc2)cc1Cl` (centres undefined), the GI50 is 3.69 µM and the TGI was found to be 15.8 µM.

Turning to `COC1C=COC2(C)Oc3c(C)c(O)c4c(c3C2=O)/C(=N/C2CCC(O)OC2C)C=C(NC(=O)/C(C)=C\C(=O)C2CC2C(O)C(C)C(O)C(C)C(OC(C)=O)C1C)C4=O` (centres undefined), the TGI was found to be 8.75 µM.

With `CC(=O)/C=C/c1cn(C(=O)OC(C)(C)C)c2ccc(Br)cc12`, the GI50 is 15.8 µM and the TGI is 30.4 µM.

As for `CCOc1ccccc1C(=O)N1CCN(c2cc(Cl)cc(Cl)c2)CC1`, the GI50 was 0.0416 µM and the TGI stood at 15.8 µM.

With `NC(CSC1c2ccccc2-c2ccccc21)C(=O)O` (centres undefined), the TGI is over 100 µM.

A further assay has as its system SK-OV-3 ovarian. The assay is described as follows: DTP human tumour cell line panel, 48 h.
Turning to `OCC1OC(n2cnc3c(N/N=C\c4ccccn4)ncnc32)C(O)C1O` (centres undefined), the GI50 was 0.239 µM and the TGI came out at 2.97 µM.

As to `COc1cc2c(cc1OCCCn1c(-c3ccccn3)nc3ccccc31)N=C[C@@H]1CCCN1C2=O`, the GI50 is 4.23 µM and the TGI was determined as 19.6 µM.

For `c1cnn2ncc(-c3ccnc(NCCCN4CCOCC4)n3)c2c1`, the GI50 is 8.34 µM and the TGI was over 25 µM.

On to `O=C(Nc1ccc(OCc2nnc(-c3ccc(Cl)cc3)o2)c(F)c1)Nc1ccc(Cl)c(C(F)(F)F)c1`, for which the GI50 was 3.3 µM and the TGI was 12.5 µM.

As for `O=C1NC(=O)C(N2C(=O)c3ccccc3C2=O)CC1O` (centres undefined), the GI50 is over 100 µM and the concentration for total growth inhibition (TGI) is over 100 µM.

For the molecule `COc1ccc2c(c1)N(CCO)C1=C(C(=O)OC1)C2c1cccc(F)c1` (centres undefined), the GI50 is 1.26 µM and the TGI is over 50 µM.

`C=CC(=O)Nc1cccc(Oc2nc(Nc3ccc(N4CCN(C)CC4)cc3)nc3ccsc23)c1`: the GI50 was 0.307 µM and 0.508 µM; the TGI is > 10 µM and 14 µM.

As to `OCc1ccc(N2CCCC2c2ccccc2)cc1Cl` (centres undefined), the GI50 is 2.89 µM and the TGI worked out at 13 µM.

As for `COC1C=COC2(C)Oc3c(C)c(O)c4c(c3C2=O)/C(=N/C2CCC(O)OC2C)C=C(NC(=O)/C(C)=C\C(=O)C2CC2C(O)C(C)C(O)C(C)C(OC(C)=O)C1C)C4=O` (centres undefined), the TGI was 20.1 µM.

In the case of `CC(=O)/C=C/c1cn(C(=O)OC(C)(C)C)c2ccc(Br)cc12`, the GI50 is 20.6 µM and the TGI came out at 46.7 µM.

With `CCOc1ccccc1C(=O)N1CCN(c2cc(Cl)cc(Cl)c2)CC1`, the GI50 is 0.258 µM and the TGI was 9.14 µM.

In turn, `NC(CSC1c2ccccc2-c2ccccc21)C(=O)O` (centres undefined) yielded a TGI of over 100 µM.

The test system of another assay is IGROV1 ovarian. The assay is described as follows: DTP human tumour cell line panel, 48 h.
For the molecule `OCC1OC(n2cnc3c(N/N=C\c4ccccn4)ncnc32)C(O)C1O` (centres undefined), the GI50 was 0.41 µM and the concentration for total growth inhibition (TGI) is 8.98 µM.

For `COc1cc2c(cc1OCCCn1c(-c3ccccn3)nc3ccccc31)N=C[C@@H]1CCCN1C2=O`, the GI50 was 1.96 µM and the TGI was determined as 4.89 µM.

As for `c1cnn2ncc(-c3ccnc(NCCCN4CCOCC4)n3)c2c1`, the GI50 was 7.51 µM and the TGI is over 25 µM.

On to `O=C(Nc1ccc(OCc2nnc(-c3ccc(Cl)cc3)o2)c(F)c1)Nc1ccc(Cl)c(C(F)(F)F)c1`, for which the GI50 was 2.9 µM and the TGI was found to be 10.5 µM.

For the molecule `O=C1NC(=O)C(N2C(=O)c3ccccc3C2=O)CC1O` (centres undefined), the GI50 was over 100 µM and the TGI is over 100 µM.

Turning to `COc1ccc2c(c1)N(CCO)C1=C(C(=O)OC1)C2c1cccc(F)c1` (centres undefined), the GI50 was 0.433 µM and the TGI is over 50 µM.

On to `C=CC(=O)Nc1cccc(Oc2nc(Nc3ccc(N4CCN(C)CC4)cc3)nc3ccsc23)c1`, for which the GI50 was 1.42 µM and 1.75 µM; the TGI is 3.05 µM and 4.58 µM.

On to `OCc1ccc(N2CCCC2c2ccccc2)cc1Cl` (centres undefined), for which the GI50 was 0.187 µM and the total growth inhibition concentration (TGI) is 0.813 µM.

Consider `COC1C=COC2(C)Oc3c(C)c(O)c4c(c3C2=O)/C(=N/C2CCC(O)OC2C)C=C(NC(=O)/C(C)=C\C(=O)C2CC2C(O)C(C)C(O)C(C)C(OC(C)=O)C1C)C4=O` (centres undefined), for which the TGI came out at 6.13 µM.

As to `CC(=O)/C=C/c1cn(C(=O)OC(C)(C)C)c2ccc(Br)cc12`, the GI50 was 15.9 µM and the TGI worked out at 39.5 µM.

Consider `CCOc1ccccc1C(=O)N1CCN(c2cc(Cl)cc(Cl)c2)CC1`, for which the GI50 is 0.0408 µM and the TGI came out at 13.9 µM.

For the molecule `NC(CSC1c2ccccc2-c2ccccc21)C(=O)O` (centres undefined), the TGI is over 100 µM.

The subject of the next assay is COLO 205 colon. Nature of the assay: DTP human tumour cell line panel, 48 h.
`OCC1OC(n2cnc3c(N/N=C\c4ccccn4)ncnc32)C(O)C1O` (centres undefined): the GI50 was 0.622 µM and the TGI was over 100 µM.

On to `COc1cc2c(cc1OCCCn1c(-c3ccccn3)nc3ccccc31)N=C[C@@H]1CCCN1C2=O`, for which the GI50 is 2.22 µM and the TGI amounted to 4.9 µM.

`c1cnn2ncc(-c3ccnc(NCCCN4CCOCC4)n3)c2c1`: the GI50 was 3.9 µM and the TGI was 7.96 µM.

On to `O=C(Nc1ccc(OCc2nnc(-c3ccc(Cl)cc3)o2)c(F)c1)Nc1ccc(Cl)c(C(F)(F)F)c1`, for which the GI50 was 1.73 µM and the TGI turned out to be 3.5 µM.

Take `O=C1NC(=O)C(N2C(=O)c3ccccc3C2=O)CC1O` (centres undefined): the GI50 is over 100 µM and the concentration for total growth inhibition (TGI) is over 100 µM.

On to `COc1ccc2c(c1)N(CCO)C1=C(C(=O)OC1)C2c1cccc(F)c1` (centres undefined), for which the GI50 was 0.526 µM and the total growth inhibition concentration (TGI) is 3.25 µM.

With `C=CC(=O)Nc1cccc(Oc2nc(Nc3ccc(N4CCN(C)CC4)cc3)nc3ccsc23)c1`, the GI50 was 2.19 µM and the TGI was 5.27 µM.

`OCc1ccc(N2CCCC2c2ccccc2)cc1Cl` (centres undefined): the GI50 is 3.26 µM and the TGI is 11.8 µM.

`COC1C=COC2(C)Oc3c(C)c(O)c4c(c3C2=O)/C(=N/C2CCC(O)OC2C)C=C(NC(=O)/C(C)=C\C(=O)C2CC2C(O)C(C)C(O)C(C)C(OC(C)=O)C1C)C4=O` (centres undefined) gave a TGI of 3.38 µM.

In the case of `CC(=O)/C=C/c1cn(C(=O)OC(C)(C)C)c2ccc(Br)cc12`, the GI50 was 19.5 µM and the TGI stood at 42.1 µM.

Turning to `CCOc1ccccc1C(=O)N1CCN(c2cc(Cl)cc(Cl)c2)CC1`, the GI50 is 0.0287 µM and the total growth inhibition concentration (TGI) is 0.0853 µM.

The molecule `NC(CSC1c2ccccc2-c2ccccc21)C(=O)O` (centres undefined) returned a TGI of over 100 µM.

A further assay has as its system SF-539 CNS. Nature of the assay: DTP human tumour cell line panel, 48 h.
Regarding `OCC1OC(n2cnc3c(N/N=C\c4ccccn4)ncnc32)C(O)C1O` (centres undefined), the GI50 is 0.318 µM and the TGI worked out at 2.27 µM.

Turning to `COc1cc2c(cc1OCCCn1c(-c3ccccn3)nc3ccccc31)N=C[C@@H]1CCCN1C2=O`, the GI50 was 2.27 µM and the TGI was 4.98 µM.

As for `c1cnn2ncc(-c3ccnc(NCCCN4CCOCC4)n3)c2c1`, the GI50 is 6.18 µM and the total growth inhibition concentration (TGI) was 18.7 µM.

For `O=C(Nc1ccc(OCc2nnc(-c3ccc(Cl)cc3)o2)c(F)c1)Nc1ccc(Cl)c(C(F)(F)F)c1`, the GI50 is 1.91 µM and the TGI worked out at 4.34 µM.

As to `O=C1NC(=O)C(N2C(=O)c3ccccc3C2=O)CC1O` (centres undefined), the GI50 is over 100 µM and the TGI was over 100 µM.

For `COc1ccc2c(c1)N(CCO)C1=C(C(=O)OC1)C2c1cccc(F)c1` (centres undefined), the GI50 is 0.332 µM and the TGI stood at 3.19 µM.

With `C=CC(=O)Nc1cccc(Oc2nc(Nc3ccc(N4CCN(C)CC4)cc3)nc3ccsc23)c1`, the GI50 is 1.62 µM and 1.75 µM; the TGI is 3.02 µM and 3.23 µM.

For the molecule `OCc1ccc(N2CCCC2c2ccccc2)cc1Cl` (centres undefined), the GI50 was 8.77 µM and the TGI was 21.8 µM.

`COC1C=COC2(C)Oc3c(C)c(O)c4c(c3C2=O)/C(=N/C2CCC(O)OC2C)C=C(NC(=O)/C(C)=C\C(=O)C2CC2C(O)C(C)C(O)C(C)C(OC(C)=O)C1C)C4=O` (centres undefined): the TGI was 5.34 µM.

As to `CC(=O)/C=C/c1cn(C(=O)OC(C)(C)C)c2ccc(Br)cc12`, the GI50 is 12.8 µM and the TGI turned out to be 26 µM.

For `CCOc1ccccc1C(=O)N1CCN(c2cc(Cl)cc(Cl)c2)CC1`, the GI50 is 0.0252 µM and the concentration for total growth inhibition (TGI) turned out to be 0.412 µM.

`NC(CSC1c2ccccc2-c2ccccc21)C(=O)O` (centres undefined) registered a TGI of over 100 µM.
